According to patent US5543521A, “Compounds that modulate endothelin activity” (Immunopharmaceutics, Inc., priority 1994, dated 1996):
Each block holds one compound with its values, some of them ahead of it. Square brackets hold non-standard residues; d marks the D form. Ends that are not written are not given here. Peptide text beside a SMILES is read from it. d(aIle) = CC[C@H](C)[C@@H](N)C(=O)O

Assays:
human ETB receptor = experiment: Endothelin Inhibition Binding Test #2: membranes of COS7 cells expressing the human ETB receptor; settings: 125I-ET-1, COS7 membranes expressing human ETB receptor
Description: COS7 cells were transfected with DNA encoding the ETB receptor, The resulting cells, which express the human ETB receptor, were grown to confluence in T-150 flasks. Membrane was prepared as described above. The binding assay was performed as described above using the membrane preparation diluted with binding buffer to a concentration of 1 μg/100 μl.
The COS7 cells, described above, that had been transfected with DNA encoding the ETB receptor and express the human ETB receptor were grown to confluence in T-175 flasks. Cells from multiple flasks were collected by scraping, pooled and centrifuged for 10 min. at 190×g. The cells were resuspended in phosphate buffered saline (PBS) containing 10 mM EDTA using a Tenbroeck homogenizer. The suspension was centrifuged at 4° C. at 57,800×g for 15 min, the pellet was resuspended in 5 ml of buffer A (5mM HEPES buffer, pH 7.4 containing aprotinin (100 KIU/ml)) and then frozen and thawed once. 5 ml of Buffer B (5 mM HEPES Buffer, pH 7.4 containing 10 mM MnCl2 and 0.001% deoxyribonuclease Type 1) was added, the suspension mixed by inversion and then incubated at 37° C. for 30 minutes. The mixture was centrifuged at 57,800×g as described above, the pellet washed twice with buffer A and then resuspended in buffer C (30 mM HEPES buffer, pH 7.4 containing aprotinin (100 KIU/ml) to give a final protein concentration of 2 mg/ml. […]

[1] = target: T1, endothelin receptors (TE 671 cells) (Homo sapiens, UniProt P25101); experiment: Endothelin Binding Inhibition Binding Test #1: inhibition of 125I-ET-1 binding to TE 671 cell membranes; settings: 125I-ET-1, TE 671 membranes, 4° C. for 16 hours, test compound 1 nM to 100 μM, triplicate
T1 construct: host or cells: TE 671 cells (membrane preparation)
T1 sequence (P25101 21-427): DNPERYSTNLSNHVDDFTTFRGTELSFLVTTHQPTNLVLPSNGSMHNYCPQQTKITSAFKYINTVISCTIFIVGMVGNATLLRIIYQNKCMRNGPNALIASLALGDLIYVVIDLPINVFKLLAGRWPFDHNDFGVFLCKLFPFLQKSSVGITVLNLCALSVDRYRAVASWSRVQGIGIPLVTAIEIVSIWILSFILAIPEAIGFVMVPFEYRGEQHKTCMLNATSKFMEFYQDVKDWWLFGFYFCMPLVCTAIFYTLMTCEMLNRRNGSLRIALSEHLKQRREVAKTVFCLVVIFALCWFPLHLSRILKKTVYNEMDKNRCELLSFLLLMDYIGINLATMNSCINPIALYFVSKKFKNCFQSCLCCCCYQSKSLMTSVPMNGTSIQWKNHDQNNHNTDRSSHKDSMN
Description: TE 671 cells (ATCC Accession No. HTB 139) were grown to confluence in T-175 flasks. Cells from multiple flasks were collected by scraping, pooled and centrifuged for 10 min at 190×g. The cells were resuspended in phosphate buffered saline (PBS) containing 10 mM EDTA using a Tenbroeck homogenizer. The suspension was centrifuged at 4° C. at 57,800×g for 15 min, the pellet was resuspended in 5 ml of buffer A (5 mM HEPES buffer, pH 7.4 containing aprotinin (100 KIU/ml)) and then frozen and thawed once. 5 ml of Buffer B (5 mM HEPES Buffer, pH 7.4 containing 10 mM MnCI2 and 0.001% deoxyribonuclease Type 1) was added, the suspension mixed by inversion and then incubated at 37° C. for 30 minutes. The mixture was centrifuged at 57,800×g as described above, the pellet washed twice with buffer A and then resuspended in buffer C (30 mM HEPES buffer, pH 7.4 containing aprotinin (100 KIU/ml) to give a final protein concentration of 2 mg/ml and stored at -70° C. until use.
The membrane suspension was diluted with binding buffer (30 mM HEPES buffer, pH 7.4 containing 150 mM NaCl, 5 mM MgCl2, 0.5% Bacitracin, 0.1% BSA) to a concentration of 6 μg/100 μl. […] The supernatant, containing unbound radioactivity, was decanted and the pellet counted on a Genesys multiwell gamma counter. The degree of inhibition of binding (D) was calculated according to the following equation: [formula] […]

[2] = system: cardiovascular receptors (cultured aortic smooth muscle cells); settings: read-out: IC50, inhibition of 125 endothelin-1 binding; cited from earlier work
[3] = target: cardiovascular receptors (ventricle membranes); settings: read-out: IC50, inhibition of 125 endothelin-1 binding; cited from earlier work
[4] = target: cardiovascular receptors (aortic smooth muscle membrane); settings: read-out: IC50, inhibition of 125 endothelin-1 binding; cited from earlier work
endothelinB receptor = settings: endothelinB receptor-rich tissues; cited from earlier work
endothelin-1 = settings: cited from earlier work
vasoconstriction = settings: cited from earlier work
[5] = system: ETB receptors (non-cardiovascular tissues); settings: kidney, adrenal gland, cerebellum; cited from earlier work
[6] = system: ETB receptors (cerebral tissue); settings: cited from earlier work
[7] = system: porcine pulmonary arteries; settings: cited from earlier work
isolated vascular strips = settings: read-out: EC50, contractile agent; cited from earlier work
[8] = system: ETA receptors (cardiovascular tissues); settings: cited from earlier work

- IC50 [1]: 22.5 µM
Compound: O=C(O)C1CCC2C(=O)NC(Cc3c[nH]c4ccccc34)C(=O)N12 (stereo not shown) [3-(3-indolylmethyl)-1,4-diaza-2,5-dioxobicyclo[4.3.0]nonane-9-carboxylic acid]
- activity in the second binding inhibition assay (human ETB receptor): no detectable activity

Compound: CC[C@H](C)[C@H]1NC(=O)[C@H](C)NC(=O)[C@@H](CCC(=O)O)NC(=O)[C@@H](Cc2c[nH]c3ccccc23)NC(=O)[C@H](CC(C)C)NC1=O [BE-18257B, c(D-Glu-L-Ala-allo-D-Ile-L-Leu-D-Trp)] (cyclo(A[d(aIle)]L[dW][dE]))
- IC50 [2]: 0.5 µM
- IC50 [3]: 0.8 µM
- IC50 [4]: 1.4 µM
- concentration up to which it fails to inhibit binding (endothelinB receptor): > 100 µM

Compound: CC(C)C[C@@H]1NC(=O)[C@@H](C(C)C)NC(=O)[C@@H]2CCCN2C(=O)[C@@H](CC(=O)O)NC(=O)[C@@H](Cc2c[nH]c3ccccc23)NC1=O [BQ-123, c(D-Asp-Pro-D-Val-Leu-D-Trp)] (cyclo(L[dW][dD]P[dV]))
- activity as endothelin-1 antagonists (endothelin-1): exhibit activity as endothelin-1 antagonists

Compound: (Thr^2, Phe^4, Thr^5, Tyr^6, Lys^7, Tyr^14) endothelin-1 [endothelin-3]
- vasoconstriction potency order (vasoconstriction): endothelin-2>endothelinol>endothelin-3
- inhibition of 125 endothelin-1 binding [5]: inhibited to the same extent by endothelin-1 and endothelin-3

Compound: (Trp^6,Leu^7) endothelin-1 (CSCSSWLDKECVYFCHLDIIW; ends and bridges not checked; cysteine pairing not given here; UniProt P20800 49-69, looked up) [endothelin-2, endothelin isopeptide]
- vasoconstriction potency order (vasoconstriction): endothelin-2>endothelinol>endothelin-3

Compound: [Ala^1,3,11,15 ]endothelin-1: endothelin-1 analog in which the four cys residues are replaced with Ala (ASASSLMDKEAVYFAHLDIIW; Endothelin-1; UniProt P05305 53-73, looked up, variant C1A C3A C11A C15A)
- inhibition of 125 ET-1 binding [6]: inhibits ^125 ET-1 binding to cerebral tissue
- relaxation of pre-contracted arteries [7]: dose-dependent relaxation of pre-contracted porcine pulmonary arteries

Compound: endothelin-1: potent twenty-one amino acid peptide vasoconstrictor
- vasoconstriction potency order (vasoconstriction): endothelin-2>endothelinol>endothelin-3
- EC50 (isolated vascular strips): 0.0004 µM
- potency of inhibition of 125 endothelin-1 binding relative to endothelin-3 [8]: 40-700
- inhibition of 125 endothelin-1 binding [5]: inhibited to the same extent by endothelin-1 and endothelin-3
